Here are results for 2 compounds from US20220220100A1 (SOLUTIA CANADA INC., priority 2019, published 2022).

Each structure is given as a SMILES string.

What all share (format): physicochemical
The nature of data set [1]: UV/Vis absorbance at 400 nm and Yellowness Index of the ring-open isomer. The settings on record: for Abs @ 400 nm, RO (Absorption of ring-open isomer at 400 nm): 2×10^−5 M solution, 1 cm pathlength cuvette. The source says: In addition to the above, chromophores should have acceptable colour for both the ring-opened and ring-closed isomers. For example, the ring-open isomer of the chromophore should have a Yellowness Index (YI) of less than about 10 and an absorbance at 400 nm, as measured for a 2×10^−5 M solution in a 1 cm pathlength cuvette. For the ring-closed isomer of the chromophore, the lambda max should be between about 475 nm and 700 nm, tunable according to desired colour and number of chromophores in the composition.
(§1) UV/Vis spectra were obtained using an OceanOptics™ Spectrophotometer. A 2×10^−5 M solution of compound in solvent was prepared, and photofaded using visible light until absorption in the visible region of the spectrum stabilized. The sample was then irradiated with simulated sunlight (QSUN SS-150 Solar Simulator with xenon arc lamp) until the absorption spectrum stabilized. To obtain PSS in the presence of a UV blocking film, a second sample was prepared and irradiated as described, with a UV blocking film inserted in the light path when irradiating.

The nature of data set [2]: Photostationary state (PSS) and lambda max under simulated sunlight (solar simulator). The settings on record: for PSS (SS): absorbance at photostationary state, simulated sunlight (solar simulator), 2×10^−5 M solution; for λmax (nm): peak in the visible range, ring-closed (dark) state.
Description: The term “photostationary state” (PSS) refers to an equilibrium state of a compound or material where the rate of the ring closing (forward) reaction is equal to the rate of the ring-opening reaction, when irradiated with light in a given region of the spectrum. In other words, the ratio of the ring-open isomer to the ring-closed isomer is at an equilibrium. PSS may be expressed with reference to a light source, or with reference to a type of light, for example, QUV, Xenon-arc lamp, Q-SUN, natural or filtered sunlight, UV, VIS, IR, NIR, full spectrum or the like, or with reference to a particular wavelength or range of wavelengths, or in the presence or absence of a filter. Some ring-open and ring-closed isomers may undergo isomerization from one to the other in response to different wavelengths of light. If a wavelength of light is used where only one of the isomers absorbs, irradiation results in complete isomerization to the other form. 254 nm, 313 nm or 365 nm light are commonly used in studies of UV-absorbing isomers, but this may not be representative of the PSS under other light conditions that include the visible spectrum such as natural or simulated sunlight (“full spectrum” light) and/or with filters that block a portion of the UV component of the light. For example, in a ring-closed (dark) state, the magnitude of the maximum absorbance in the visible range may change with the light source (FIG. 1). The wavelength at this peak in the visible range may be referred to as lambda max, or λmax. […] When full spectrum light from a solar simulator (Xenon arc lamp) is used as a light source (line B), a balance is achieved between the ring-closed (dark) state induced by the UV component, and a ring-open (faded) state induced by the visible component of the light. Inclusion of a UV blocking layer in the light path (line A) may reduce the UV component of the light, and the ring-opening reaction induced by the visible light component becomes more prominent. […] Where desired, the ratio of ring-open and ring-closed isomers at a PSS may be quantified by ^1H NMR spectroscopy, such as described in U.S. Pat. No. 7,777,055. In various embodiments, compounds with an increased absorbance at a photostationary state (PSS), or increased contrast ratio, are an improvement over other diarylethene compounds. A compound with a greater absorbance in the visible range can be used in lesser quantities in a formulation or material to achieve a desired contrast ratio, whereas a compound with a lower absorbance at a PSS may need a higher concentration to achieve a desired contrast ratio.
Photostationary State (PSS)
as §1

The nature of data set [3]: Oxidation potential of ring-closed and ring-open isomers. The settings on record: no unit printed in table (V relative to Ag/AgCl). The source says: In various embodiments, at a PSS, some of the chromophore will be in the ring-closed isomer, with a small, but non-zero portion of ring-open isomer. The oxidation potential of a ring-open isomer may be more anodic than the oxidation potential of a ring-closed isomer. Exposure to a potential that is too far beyond what is necessary to oxidize the ring-closed isomer may result in oxidation of the ring-open isomer, which may be irreversible and result in electrochemically-induced degradation of the chromophore.
Thus, in various embodiments, an anodic chromophore may have an oxidation potential of from about 0.4 V to 1.2 V for the ring-closed isomer and about 1.0 V to 2.5 V for the ring-open isomer relative to an Ag/AgCl reference electrode. In various embodiments, the oxidation potential for the ring-open isomer is about 250 mV more anodic than the oxidation potential for the ring-closed isomer. For example, the oxidation potential may be about 260 mV, about 280 mV, about 300 mV, about 320 mV, about 340 mV, about 360 mV, about 380 mV, about 400 mV, about 420 mV, about 440 mV, or about 460 mV more anodic than the oxidation potential for the ring-closed isomer.

Data set [4] can be described thus: Photostability: xenon arc weathering of chromophore solutions, LCMS analysis. The settings on record: for Ketone (%) / Minus-2HF (%) / Minus-HF (%) / Sulfone (%) / Chromophore Remaining (%): xenon arc, 82° C. bp; for Ketone (%) / Minus-2HF (%) / Minus-HF (%) / Sulfone (%): linearly interpolated to 0.5 MJ/m2 @ 340 nm; for Chromophore Remaining (%): linearly interpolated to 0.5 MJ/m2 @ 340 nm of exposure energy; for Photostability (in words): weathering experiments. The source says:
Photostability (resistance to light-induced degradation) may be measured by the amount of time required for the compound, or a material comprising the compound, to degrade to a certain point under light exposure. The light exposure may be constant, or cyclic. The light transmittance or absorbance of the compound, or material comprising the compound, may be determined at both a light state and dark state prior to testing, to determine a contrast ratio. During testing, the contrast ratio may be monitored (periodically or continually), the compound or material may be determined to have failed when the contrast ratio falls outside, or below, a selected range, or when the contrast ratio decreases to a percentage of the original contrast ratio. Photostability may also be expressed with reference to a light source or with reference to a type of light.
Chromophore solutions in Rhodiasolv IRIS were prepared at 1 to 10 wt % loading. Solutions were prepared in a glovebox by charging the chromophore and Rhodiasolv IRIS to a trace-clean vial, and the solution was stirred on a hotplate at 90° C. for 2-24 hours. After cooling, the chromophore solution was injected into glass weathering cells and the fill and vent ports were sealed with a thin disc of Kalrez (FFKM Perfluorinated Elastomer) and secured with a clamp and set-screw. The weathering cells were filled and sealed inside the glove box.
Measurement of Photostability
A. Fabrication of cuvettes. Two holes of 0.8 mm diameter were drilled at opposite ends in a 75×50 mm piece of float glass using a diamond drill bit in a rotary tool. The drilled glass and a matching piece of undrilled glass were then cleaned using hot soapy water, rinsed with deionized water and acetone and then dried with compressed air. A 5 mm wide frame was cut from a sheet of 50 μm thickness EVAL EF-F using a laser engraver. The EVAL frame was placed around the perimeter of one sheet of glass and sandwiched by the second sheet of glass. The glass-EVAL-glass sandwich was secured with tape and heated under vacuum (10 mmHg) for 30 minutes at 170° C. in a vacuum bag. After cooling, a third piece of float glass was PVB laminated to the non-drilled side of the sealed glass cells using Trosifol UV Extra Protect B150 PVB (400 nm UV cut-off).
B. Xenon arc weathering protocol. Devices were exposed to simulated weathering conditions inside a Xe-3-HS xenon arc chamber, manufactured by Q-labs Inc. The samples were weathered according to the following table. The devices were exposed to these conditions continuously, with no dark or spray cycles included.
C. Analysis of weathered chromophore solutions by LCMS. The set-screws, metal clamps and Kalrez plugs were removed from the cuvette to expose the fill port. A 5 mL plastic syringe (NORM-JECT®) equipped with a tip (Precision Tips, 0.010″ RED) was inserted into one fill port and the chromophore solution was withdrawn from the cuvette. The chromophore solution was then injected into a 2 mL amber vial (part number 5182-0716, Agilent Technology) prefilled with 1.5 mL LC-MS grade acetonitrile (HiPerSolbe CHROMANORM Acetonitrile, VWR BDH Chemicals). An aliquot of the acetonitrile solution (2 μL) was injected into the LC-MS system (Agilent Infinity 1290 LC-MS system with diode array detector) through an autosampler mechanism. Species in the injected sample were separated through a reverse phase column (Zorbax SB-C18, 2.1×50 mm, 1.8 μm, operated at 40° C.), using a mixture of acetonitrile (mixed with 1% formic acid v/v ratio), methanol (HiPerSolbe CHROMANORM Methanol, VWR BDH Chemicals) and water (HiPerSolbe CHROMANORM Water, VWR BDH Chemicals) as mobile phase.

Where [5] appears, read: 1 wt %, interpolated to 0.5 MJ/m^2 of energy exposure at 340 nm.

For the compound `COc1cc2oc(-c3ccc(C(C)(C)C)cc3)c(C3=C(c4cc(-c5cccs5)sc4-c4cccs4)C(F)(F)C(F)(F)C3(F)F)c2cc1OC` [Chromophore S193, 3-(2-([2,2′:5′,2″-terthiophen]-3′-yl)-3,3,4,4,5,5-hexafluorocyclopent-1-en-1-yl)-2-(4-(tert-butyl)phenyl)-5,6-dimethoxybenzofuran], in data set [1], the “YI (Yellowness Index)” value was 3.59 and the “Abs @ 400 nm, RO (Absorption of ring-open isomer at 400 nm)” value was 0.097. In data set [2], the “PSS (SS)” value is 0.269 and the “λmax (nm)” value is given as 587 nm. For the same compound, the “RC [O] (oxidation potential of ring-closed isomer)” value in data set [3] (ring-closed isomer) was determined as 1.02. Also, in data set [3] (ring-open isomer), the “RO [O] (oxidation potential of ring-open isomer)” value stood at 1.41. Moreover, in data set [4] (3 wt % in Rhodiasolv IRIS), the “Ketone (%)” value is given as 0.0%, the “Minus-2HF (%)” value stood at 2.1%, the “Minus-HF (%)” value was found to be 1.4% and the “Sulfone (%)” value is listed as 0.0%. Besides, the “Chromophore Remaining (%)” value in data set [4] (3 wt % in Rhodiasolv IRIS) was determined as 92.7%. Moreover, the “Ratio of chromophore remaining relative to S340” value in data set [4] (3 wt %, interpolated to 0.5 MJ/m^2 of energy exposure at 340 nm) is 1.02. In data set [4], the “Photostability (in words)” value is recorded as “high photostability”.

Take `COc1cc2oc(-c3ccc(C(C)(C)C)cc3)c(C3=C(c4cc(-c5cc6c(s5)C(C)(C)CC6(C)C)sc4-c4cc5c(s4)C(C)(C)CC5(C)C)C(F)(F)C(F)(F)C3(F)F)c2cc1OC` [Chromophore S404]: in data set [1], the “YI (Yellowness Index)” value turned out to be 11.1 and the “Abs @ 400 nm, RO (Absorption of ring-open isomer at 400 nm)” value is given as 0.182. Further, in data set [2], the “PSS (SS)” value is reported as 0.429 and the “λmax (nm)” value is reported as 599 nm. Also, in data set [4] (1 wt % in Rhodiasolv IRIS), the “Ketone (%)” value is listed as 0.0%, the “Minus-2HF (%)” value is on record as 0.0%, the “Minus-HF (%)” value was 0.0% and the “Sulfone (%)” value was determined as 0.0%. Besides, the “Chromophore Remaining (%)” value in data set [4] (1 wt % in Rhodiasolv IRIS) was found to be 100.0%. Further, in data set [4] (setting [5]), the “Ratio of chromophore remaining relative to S340” value was found to be 1.10 and the “Sum of degradation product percentages relative to the sum of degradation product percentages for S340” value turned out to be 0.00. In addition, the “Photostability (in words)” value in data set [4] was “high photostability”.
